The text below walks through data of ChEMBL document CHEMBL4732221, “Design, synthesis and bioactivity evaluation of novel pyrazole linked phenylthiazole derivatives in context of antibacterial activity” (Bioorg Med Chem Lett, 2021).

Data set [1] deals with Staphylococcus aureus. Description: Antibacterial activity against methicillin-resistant Staphylococcus aureus ATCC 43300 assessed as growth inhibition at 32 ug/ml after 18 hrs by monochromator plate assay relative to control. It counts as functional.
In data set [2] the test system is Escherichia coli. Nature of the data set: Antibacterial activity against Escherichia coli ATCC 25922 assessed as growth inhibition at 32 ug/ml after 18 hrs by monochromator plate assay relative to control. It is filed as functional. The note with it: dose 32.0 µg/ml.
The subject of data set [3] is Staphylococcus aureus. Description: Antibacterial activity against methicillin-resistant Staphylococcus aureus ATCC 43300 assessed as growth inhibition after 18 hrs by monochromator plate assay. It is filed as functional.
The subject of data set [4] is Klebsiella pneumoniae. Nature of the data set: Antibacterial activity against Klebsiella pneumoniae ATCC 700603 assessed as growth inhibition after 18 hrs by monochromator plate assay. It is filed as functional.
Data set [5] has as its system Cryptococcus neoformans. Description: Antifungal activity against Cryptococcus neoformans var. grubii ATCC 208821) assessed as growth inhibition after 36 hrs by monochromator plate assay relative to control. It counts as functional.
The test system of data set [6] is Acinetobacter baumannii. Nature of the data set: Antibacterial activity against Acinetobacter baumannii ATCC 19606 assessed as growth inhibition at 32 ug/ml after 18 hrs by monochromator plate assay relative to control. It counts as functional.
Data set [7] has as its system Candida albicans. Description: Antifungal activity against Candida albicans ATCC 90028 assessed as growth inhibition after 36 hrs by monochromator plate assay. It counts as functional.
In data set [8] the test system is Candida albicans. Description: Antifungal activity against Candida albicans ATCC 90028 assessed as growth inhibition at 32 ug/ml after 36 hrs by monochromator plate assay relative to control. It is filed as functional.
For data set [9], the system named is Escherichia coli. Description: Antibacterial activity against Escherichia coli ATCC 25922 assessed as growth inhibition after 18 hrs by monochromator plate assay. It counts as functional.
The subject of data set [10] is Pseudomonas aeruginosa. Description: Antibacterial activity against Pseudomonas aeruginosa ATCC 27853 assessed as growth inhibition at 32 ug/ml after 18 hrs by monochromator plate assay relative to control. It is filed as functional.
Data set [11] has as its system Blood. Description: (§1) Haemolytic activity against human whole blood after 70 mins by monochromator plate reader. It is filed as ADME, tissue-based. The settings on record: blood, 1.167 h.
A short description of data set [12]: as §1. It counts as ADME, tissue-based. The settings on record: whole blood.
The nature of data set [13]: Cytotoxicity against HEK293 cells assessed as cell viability after 20 hrs by fluorescence assay. It is filed as cell-based. The settings on record: human.
The test system of data set [14] is Acinetobacter baumannii. Description: Antibacterial activity against Acinetobacter baumannii ATCC 19606 assessed as growth inhibition after 18 hrs by monochromator plate assay. It is filed as functional.
The test system of data set [15] is Klebsiella pneumoniae. Description: Antibacterial activity against Klebsiella pneumoniae ATCC 700603 assessed as growth inhibition at 32 ug/ml after 18 hrs by microplate reader assay relative to control. It is filed as functional.
For data set [16], the system named is Cryptococcus neoformans. Description: Antifungal activity against Cryptococcus neoformans var. grubii ATCC 208821 assessed as growth inhibition at 32 ug/ml after 36 hrs by monochromator plate assay relative to control. It is filed as functional. The note with it: dose 32.0 µg/ml.
The test system of data set [17] is Pseudomonas aeruginosa. Description: Antibacterial activity against Pseudomonas aeruginosa ATCC 27853 assessed as growth inhibition after 18 hrs by monochromator plate assay. It counts as functional.
Data set [18] deals with Enterococcus faecalis. Description: Antibacterial activity against vancomycin resistant Enterococcus faecalis assessed as reduction in bacterial growth by CLSI based broth microdilution method. It is filed as functional. The settings on record: time 18 hrs.
Data set [19] has as its system Staphylococcus aureus. Description: Antibacterial activity against methicillin-resistant Staphylococcus aureus assessed as reduction in bacterial growth by CLSI based broth microdilution method. It counts as functional. The note with it: time 18 hrs.
Data set [20] can be described thus: Inhibition of Escherichia coli DNA topoisomerase 4 assessed as reduction in decatenation of kinetoplast DNA measured after 1 hr by agarose gel electrophoresis method.
In data set [21] the test system is Escherichia coli. Description: Antibacterial activity against Escherichia coli assessed as reduction in bacterial growth by CLSI based broth microdilution method. It counts as functional. The settings on record: time 18 hrs.
Data set [22] concerns Streptococcus pneumoniae. Nature of the data set: Antibacterial activity against Streptococcus pneumoniae assessed as reduction in bacterial growth by CLSI based broth microdilution method. The settings on record: time 18 hrs. It is filed as functional.

≈ marks a conversion by molar mass, not a printed value. Calls of active or inactive are those of the source. The rule behind the calls is not given here.

On to `Cc1nc(-c2ccc(-c3ccccc3)cc2)sc1-c1cc(C(=O)Nc2ccccc2)n[nH]1`, for which the inhibition at 32 µg/mL in data set [1] worked out at 85.1%; in data set [6], 1.6%; in [8] it was 9.6%; in data set [10] it was 16.6%; in data set [15], 9.9%. For the same molecule, the inhibition result in [2] and in [16] was “inactive” each time. The minimum inhibitory concentration (MIC) is 4 µg/mL (≈ 9.16 µM) in data set [3]; over 32 µg/mL in data set [4]; over 32 µg/mL in data set [7]; over 32 µg/mL in data set [14]; over 32 µg/mL in [17]. Besides, the MIC result in data set [5] and in [9] was “inactive” throughout. Further, the HC10 in [11] is over 32 µg/mL. This molecule had a 50% haemolytic concentration (HC50) at 1.167 h in data set [12] of over 32 µg/mL. Also, in data set [13], the CC50 at 20 h was over 32 µg/mL.

As for `c1ccc(COc2ccc(-c3cc(C4CCNCC4)[nH]n3)cc2)cc1`, the MIC in data set [18] and in data set [19] was 64 µg/mL (≈ 192 µM) throughout. The IC50 in [20] turned out to be 128 µg/mL (≈ 384 µM).

For `Clc1cccc(-n2nc(C3CCNCC3)cc2/C=C/c2c[nH]c3ccc(Cl)cc23)c1`, the MIC in [18] is 2 µg/mL (≈ 4.57 µM); in data set [21] it was 16 µg/mL (≈ 36.6 µM); in data set [22], 2 µg/mL (≈ 4.57 µM); in data set [19], 2 µg/mL (≈ 4.57 µM).

Take `CC[C@H](C)[C@H](NC(=O)CN)C(=O)NCC(=O)N[C@@H](C)C(=O)N[C@H](C(=O)N[C@@H](CC(C)C)C(=O)N[C@@H](CCCCN)C(=O)N[C@H](C(=O)N[C@@H](CC(C)C)C(=O)N[C@H](C(=O)N[C@H](C(=O)NCC(=O)N[C@@H](CC(C)C)C(=O)N1CCC[C@H]1C(=O)N[C@@H](C)C(=O)N[C@@H](CC(C)C)C(=O)N[C@H](C(=O)N[C@@H](CO)C(=O)N[C@@H](Cc1c[nH]c2ccccc12)C(=O)N[C@H](C(=O)N[C@@H](CCCCN)C(=O)N[C@@H](CCCNC(=N)N)C(=O)N[C@@H](CCCCN)C(=O)N[C@@H](CCCNC(=N)N)C(=O)N[C@@H](CCC(N)=O)C(=O)N[C@@H](CCC(N)=O)C(N)=O)[C@@H](C)CC)[C@@H](C)CC)[C@@H](C)O)[C@@H](C)O)C(C)C)C(C)C` [MELITTIN]: in data set [11], the HC10 came to 2.7 µg/mL. The 50% haemolytic concentration (HC50) at 1.167 h in [12] stood at 8.5 µg/mL.
